{"source": "patent US20230074545A1", "about": "“TREATMENT OF CANCER WITH CDK12/13 INHIBITORS” (Kinnate Biopharma Inc., priority 2019, published 2023)", "test_in_all_cases": "Radiometric kinase panel", "format_in_all_cases": "biochemical", "key": {"TYK2": {"molecular_target": "T1, TYK2 (Homo sapiens, UniProt P29597)", "T1 construct": "either as full-length or enzymatically active fragments; purchased ProQinase GmbH (Reaction Biology)", "outline": "(§1)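 Activity was measured radiometrically from [gamma-33P]-ATP incorporation into substrate. The kinases were recombinant human GST- or His-tagged proteins, full-length or active fragments, expressed in Sf9 or E. coli. Compound in 10% DMSO was added before the enzyme/substrate mix, which started the reaction.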"}, "RPS6KA5": {"molecular_target": "T2, RPS6KA5 (Homo sapiens, UniProt O75582)", "T2 construct": "either as full-length or enzymatically active fragments; purchased ProQinase GmbH (Reaction Biology); host or cells: Sf9 insect cells or E. coli (not specified per kinase)", "outline": "as §1"}, "PDGFRbeta": {"molecular_target": "T3, PDGFRbeta (Homo sapiens, UniProt P09619)", "T3 construct": "either as full-length or enzymatically active fragments; purchased ProQinase GmbH (Reaction Biology)", "T3 sequence (P09619 33-1106)": "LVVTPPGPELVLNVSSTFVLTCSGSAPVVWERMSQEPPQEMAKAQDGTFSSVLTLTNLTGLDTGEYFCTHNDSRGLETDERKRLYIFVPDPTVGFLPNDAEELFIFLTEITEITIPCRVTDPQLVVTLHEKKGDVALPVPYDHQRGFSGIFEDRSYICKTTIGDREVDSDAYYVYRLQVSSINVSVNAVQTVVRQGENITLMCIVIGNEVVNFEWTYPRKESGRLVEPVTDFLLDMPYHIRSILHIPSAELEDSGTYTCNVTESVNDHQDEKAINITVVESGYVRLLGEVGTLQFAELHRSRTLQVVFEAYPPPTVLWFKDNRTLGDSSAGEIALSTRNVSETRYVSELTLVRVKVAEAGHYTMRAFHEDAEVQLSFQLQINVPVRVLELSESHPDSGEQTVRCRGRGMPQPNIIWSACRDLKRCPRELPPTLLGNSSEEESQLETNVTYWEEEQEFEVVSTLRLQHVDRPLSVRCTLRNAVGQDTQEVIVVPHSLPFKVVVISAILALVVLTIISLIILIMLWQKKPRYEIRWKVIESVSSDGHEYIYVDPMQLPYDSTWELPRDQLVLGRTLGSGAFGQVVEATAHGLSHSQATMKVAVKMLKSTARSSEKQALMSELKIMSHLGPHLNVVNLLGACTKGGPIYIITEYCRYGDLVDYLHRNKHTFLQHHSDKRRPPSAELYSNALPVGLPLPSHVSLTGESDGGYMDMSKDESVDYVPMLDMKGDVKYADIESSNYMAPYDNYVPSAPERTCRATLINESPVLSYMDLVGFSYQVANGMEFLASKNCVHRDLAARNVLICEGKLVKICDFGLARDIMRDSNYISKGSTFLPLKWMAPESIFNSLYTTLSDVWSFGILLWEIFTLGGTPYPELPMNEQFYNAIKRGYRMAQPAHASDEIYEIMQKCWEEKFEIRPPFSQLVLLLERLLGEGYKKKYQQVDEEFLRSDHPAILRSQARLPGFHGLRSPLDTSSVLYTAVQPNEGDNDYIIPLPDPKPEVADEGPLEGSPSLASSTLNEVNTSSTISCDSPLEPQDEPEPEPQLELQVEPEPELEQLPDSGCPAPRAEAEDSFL", "outline": "as §1"}, "MKK4": {"molecular_target": "T4, MKK4 (Homo sapiens, UniProt P45985)", "T4 construct": "either as full-length or enzymatically active fragments; purchased ProQinase GmbH (Reaction Biology)", "outline": "as §1"}, "ACK1": {"molecular_target": "T5, ACK1 (Homo sapiens, UniProt Q07912)", "T5 construct": "either as full-length or enzymatically active fragments; purchased ProQinase GmbH (Reaction Biology)", "T5 sequence (Q07912 whole entry, the tested form may be a part)": "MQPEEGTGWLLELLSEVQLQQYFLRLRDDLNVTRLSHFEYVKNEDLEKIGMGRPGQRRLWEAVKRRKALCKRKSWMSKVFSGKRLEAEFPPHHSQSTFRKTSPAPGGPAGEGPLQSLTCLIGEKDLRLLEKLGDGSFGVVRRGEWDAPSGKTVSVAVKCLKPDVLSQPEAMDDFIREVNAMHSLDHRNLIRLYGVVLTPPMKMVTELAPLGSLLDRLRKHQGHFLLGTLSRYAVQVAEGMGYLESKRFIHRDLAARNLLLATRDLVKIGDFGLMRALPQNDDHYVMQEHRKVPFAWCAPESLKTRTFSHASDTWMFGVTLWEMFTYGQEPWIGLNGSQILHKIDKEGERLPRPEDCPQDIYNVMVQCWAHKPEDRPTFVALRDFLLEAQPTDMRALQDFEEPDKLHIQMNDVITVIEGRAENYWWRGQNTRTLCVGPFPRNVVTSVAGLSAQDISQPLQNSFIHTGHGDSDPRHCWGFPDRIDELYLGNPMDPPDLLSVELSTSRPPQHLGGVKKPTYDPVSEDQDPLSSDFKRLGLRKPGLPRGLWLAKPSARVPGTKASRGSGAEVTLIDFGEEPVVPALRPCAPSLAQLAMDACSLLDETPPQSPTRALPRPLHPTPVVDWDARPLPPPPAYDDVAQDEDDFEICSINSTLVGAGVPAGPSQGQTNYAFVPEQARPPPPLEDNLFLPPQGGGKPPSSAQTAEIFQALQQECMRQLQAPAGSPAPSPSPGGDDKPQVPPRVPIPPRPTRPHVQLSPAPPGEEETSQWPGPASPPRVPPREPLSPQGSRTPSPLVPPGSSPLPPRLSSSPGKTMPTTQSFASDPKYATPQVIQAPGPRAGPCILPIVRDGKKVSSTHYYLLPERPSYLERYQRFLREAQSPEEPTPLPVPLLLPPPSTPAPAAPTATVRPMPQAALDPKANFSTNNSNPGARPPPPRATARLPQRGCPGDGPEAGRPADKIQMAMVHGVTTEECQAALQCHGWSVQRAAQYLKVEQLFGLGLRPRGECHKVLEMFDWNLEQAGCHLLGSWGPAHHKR", "outline": "as §1"}, "PKCeta": {"molecular_target": "T6, PKCeta (Homo sapiens, UniProt P24723)", "T6 construct": "either as full-length or enzymatically active fragments; purchased ProQinase GmbH (Reaction Biology); host or cells: Sf9 insect cells or E. coli", "outline": "as §1"}, "TSSK1": {"molecular_target": "T7, TSSK1 (Homo sapiens, UniProt Q9BXA7)", "T7 construct": "either as full-length or enzymatically active fragments; purchased ProQinase GmbH (Reaction Biology)", "outline": "as §1"}, "MELK": {"molecular_target": "T8, MELK (Homo sapiens, UniProt Q14680)", "T8 construct": "purchased ProQinase GmbH (Reaction Biology); host or cells: Sf9 insect cells or E. coli (not specified per kinase)", "outline": "as §1"}, "TSK2": {"molecular_target": "T9, TSK2 (Homo sapiens, UniProt Q96PF2)", "T9 construct": "purchased ProQinase GmbH (Reaction Biology)", "outline": "as §1"}, "MUSK": {"molecular_target": "T10, MUSK (Homo sapiens, UniProt O15146)", "T10 construct": "either as full-length or enzymatically active fragments; purchased ProQinase GmbH (Reaction Biology)", "outline": "as §1"}, "WNK3": {"molecular_target": "T11, WNK3 (Homo sapiens, UniProt Q9BYP7)", "T11 construct": "either as full-length or enzymatically active fragments; purchased ProQinase GmbH (Reaction Biology)", "outline": "as §1"}, "SIK2": {"molecular_target": "T12, SIK2 (Homo sapiens, UniProt Q9H0K1)", "T12 construct": "either as full-length or enzymatically active fragments; purchased ProQinase GmbH (Reaction Biology)", "T12 sequence (Q9H0K1 whole entry, the tested form may be a part)": "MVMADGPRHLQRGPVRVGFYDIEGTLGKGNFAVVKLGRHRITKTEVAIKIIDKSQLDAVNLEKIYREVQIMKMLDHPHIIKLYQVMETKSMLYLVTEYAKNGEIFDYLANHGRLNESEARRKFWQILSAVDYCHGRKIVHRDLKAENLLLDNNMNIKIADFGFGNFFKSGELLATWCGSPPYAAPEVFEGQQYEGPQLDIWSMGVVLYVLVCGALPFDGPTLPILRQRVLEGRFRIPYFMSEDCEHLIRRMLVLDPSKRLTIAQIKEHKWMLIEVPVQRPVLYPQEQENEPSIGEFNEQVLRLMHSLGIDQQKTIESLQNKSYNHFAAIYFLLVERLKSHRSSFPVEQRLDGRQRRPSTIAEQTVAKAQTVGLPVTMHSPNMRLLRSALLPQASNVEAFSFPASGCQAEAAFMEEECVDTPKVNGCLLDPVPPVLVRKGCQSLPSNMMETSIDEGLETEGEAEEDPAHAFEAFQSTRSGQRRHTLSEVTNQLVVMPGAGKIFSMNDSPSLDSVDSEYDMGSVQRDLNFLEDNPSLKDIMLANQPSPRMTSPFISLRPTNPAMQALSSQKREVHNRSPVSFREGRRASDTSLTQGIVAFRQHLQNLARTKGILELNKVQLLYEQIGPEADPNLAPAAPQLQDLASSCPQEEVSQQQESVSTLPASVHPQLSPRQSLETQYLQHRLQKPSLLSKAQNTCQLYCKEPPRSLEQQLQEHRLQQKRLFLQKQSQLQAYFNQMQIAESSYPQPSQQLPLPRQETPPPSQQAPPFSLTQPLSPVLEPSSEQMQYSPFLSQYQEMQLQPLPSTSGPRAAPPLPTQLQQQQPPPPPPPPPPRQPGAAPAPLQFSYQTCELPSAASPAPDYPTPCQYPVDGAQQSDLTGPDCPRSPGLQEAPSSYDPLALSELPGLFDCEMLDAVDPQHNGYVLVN", "outline": "as §1"}, "GRK7": {"molecular_target": "T13, GRK7 (Homo sapiens, UniProt Q8WTQ7)", "T13 construct": "either as full-length or enzymatically active fragments; purchased ProQinase GmbH (Reaction Biology)", "outline": "as §1"}, "NEK1": {"molecular_target": "T14, NEK1 (Homo sapiens, UniProt Q96PY6)", "T14 construct": "purchased ProQinase GmbH (Reaction Biology)", "outline": "as §1"}, "PKCalpha": {"molecular_target": "T15, PKCalpha (Homo sapiens, UniProt P17252)", "T15 construct": "either as full-length or enzymatically active fragments; purchased ProQinase GmbH (Reaction Biology)", "outline": "as §1"}, "ABL2": {"molecular_target": "T16, ABL2 (Homo sapiens, UniProt P42684)", "T16 construct": "purchased ProQinase GmbH (Reaction Biology)", "outline": "as §1"}, "SRPK1": {"molecular_target": "T17, SRPK1 (Homo sapiens, UniProt Q96SB4)", "T17 construct": "either as full-length or enzymatically active fragments; purchased ProQinase GmbH (Reaction Biology)", "outline": "as §1"}, "PDK1": {"molecular_target": "T18, PDK1 (Homo sapiens, UniProt O15530)", "T18 construct": "either as full-length or enzymatically active fragments; purchased ProQinase GmbH (Reaction Biology)", "T18 sequence (O15530 whole entry, the tested form may be a part)": "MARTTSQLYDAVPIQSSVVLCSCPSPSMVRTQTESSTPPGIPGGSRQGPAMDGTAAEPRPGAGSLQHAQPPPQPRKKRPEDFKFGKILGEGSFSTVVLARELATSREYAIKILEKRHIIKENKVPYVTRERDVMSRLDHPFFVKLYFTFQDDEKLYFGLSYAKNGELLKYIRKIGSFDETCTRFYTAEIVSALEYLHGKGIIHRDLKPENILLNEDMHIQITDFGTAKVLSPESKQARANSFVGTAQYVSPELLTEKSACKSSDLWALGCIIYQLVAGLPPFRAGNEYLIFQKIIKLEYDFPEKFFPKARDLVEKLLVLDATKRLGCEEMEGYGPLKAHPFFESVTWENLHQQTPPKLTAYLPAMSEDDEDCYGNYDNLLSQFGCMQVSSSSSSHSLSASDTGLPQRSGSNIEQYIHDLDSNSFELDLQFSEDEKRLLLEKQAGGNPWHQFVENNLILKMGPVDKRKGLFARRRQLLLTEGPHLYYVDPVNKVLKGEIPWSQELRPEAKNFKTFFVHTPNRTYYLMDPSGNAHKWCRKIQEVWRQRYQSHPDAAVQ", "outline": "as §1"}, "PIM2": {"molecular_target": "T19, PIM2 (Homo sapiens, UniProt Q9P1W9)", "T19 construct": "either as full-length or enzymatically active fragments; purchased ProQinase GmbH (Reaction Biology)", "outline": "as §1"}, "EPHA5": {"molecular_target": "T20, EPHA5 (Homo sapiens, UniProt P54756)", "T20 construct": "either as full-length or enzymatically active fragments; purchased ProQinase GmbH (Reaction Biology)", "T20 sequence (P54756 25-1037)": "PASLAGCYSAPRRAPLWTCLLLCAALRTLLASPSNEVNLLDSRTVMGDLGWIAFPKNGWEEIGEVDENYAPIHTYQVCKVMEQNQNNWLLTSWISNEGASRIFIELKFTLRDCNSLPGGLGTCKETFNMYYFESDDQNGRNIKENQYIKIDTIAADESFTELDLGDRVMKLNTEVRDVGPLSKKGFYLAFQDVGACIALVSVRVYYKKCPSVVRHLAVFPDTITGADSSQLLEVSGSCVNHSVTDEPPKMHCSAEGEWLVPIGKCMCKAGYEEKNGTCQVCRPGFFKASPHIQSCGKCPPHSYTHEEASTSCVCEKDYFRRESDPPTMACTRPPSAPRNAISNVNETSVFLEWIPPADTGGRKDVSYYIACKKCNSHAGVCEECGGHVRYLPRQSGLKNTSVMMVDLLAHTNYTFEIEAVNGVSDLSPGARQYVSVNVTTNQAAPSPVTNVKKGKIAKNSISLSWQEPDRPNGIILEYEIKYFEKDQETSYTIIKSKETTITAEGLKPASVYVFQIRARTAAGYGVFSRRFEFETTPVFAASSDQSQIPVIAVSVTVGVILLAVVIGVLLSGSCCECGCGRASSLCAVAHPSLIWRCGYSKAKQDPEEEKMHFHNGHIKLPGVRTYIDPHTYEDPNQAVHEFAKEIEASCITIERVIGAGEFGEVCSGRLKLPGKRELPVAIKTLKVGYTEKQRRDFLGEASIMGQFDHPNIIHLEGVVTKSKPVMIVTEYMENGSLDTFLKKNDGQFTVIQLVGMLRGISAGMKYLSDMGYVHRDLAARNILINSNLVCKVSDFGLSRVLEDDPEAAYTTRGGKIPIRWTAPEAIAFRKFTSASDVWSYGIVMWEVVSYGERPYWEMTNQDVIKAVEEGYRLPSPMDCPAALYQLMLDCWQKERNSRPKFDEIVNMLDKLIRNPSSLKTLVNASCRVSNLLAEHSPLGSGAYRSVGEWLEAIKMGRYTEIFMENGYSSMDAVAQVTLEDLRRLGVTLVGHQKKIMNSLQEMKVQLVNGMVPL", "outline": "as §1"}, "CAMKK2": {"molecular_target": "T21, CAMKK2 (Homo sapiens, UniProt Q96RR4)", "T21 construct": "either as full-length or enzymatically active fragments; purchased ProQinase GmbH (Reaction Biology); host or cells: Sf9 insect cells or E. coli (not specified per kinase)", "outline": "as §1"}, "p38alpha": {"molecular_target": "T22, p38alpha (Homo sapiens, UniProt Q16539)", "T22 construct": "either as full-length or enzymatically active fragments; purchased ProQinase GmbH (Reaction Biology)", "outline": "as §1"}, "CDK9/CycT1": {"molecular_target": "T23, CDK9/CycT1 (Homo sapiens, UniProt P50750)", "T23 construct": "either as full-length or enzymatically active fragments; purchased ProQinase GmbH (Reaction Biology)", "outline": "as §1"}, "SGK3": {"molecular_target": "T24, SGK3 (Homo sapiens, UniProt Q96BR1)", "T24 construct": "either as full-length or enzymatically active fragments; purchased ProQinase GmbH (Reaction Biology)", "outline": "as §1"}, "BRSK2": {"molecular_target": "T25, BRSK2 (Homo sapiens, UniProt Q8IWQ3)", "T25 construct": "either as full-length or enzymatically active fragments; purchased ProQinase GmbH (Reaction Biology)", "outline": "as §1"}, "CDK20/CycT1": {"molecular_target": "T26, CDK20/CycT1 (Homo sapiens, UniProt Q8IZL9)", "T26 construct": "either as full-length or enzymatically active fragments; purchased ProQinase GmbH (Reaction Biology)", "outline": "as §1"}, "CDK3/CycE1": {"molecular_target": "T27, CDK3/CycE1 (Homo sapiens, UniProt Q00526)", "T27 construct": "either as full-length or enzymatically active fragments; purchased ProQinase GmbH (Reaction Biology)", "outline": "as §1"}, "NEK3": {"molecular_target": "T28, NEK3 (Homo sapiens, UniProt P51956)", "T28 construct": "either as full-length or enzymatically active fragments; purchased ProQinase GmbH (Reaction Biology)", "outline": "as §1"}, "CDK6/CycD1": {"molecular_target": "T29, CDK6/CycD1 (Homo sapiens, UniProt Q00534)", "T29 construct": "purchased ProQinase GmbH (Reaction Biology); host or cells: Sf9 insect cells or E. coli (not specified per kinase)", "outline": "as §1"}, "BRSK1": {"molecular_target": "T30, BRSK1 (Homo sapiens, UniProt Q8TDC3)", "T30 construct": "either as full-length or enzymatically active fragments; purchased ProQinase GmbH (Reaction Biology)", "outline": "as §1"}, "PIM1": {"molecular_target": "T31, PIM1 (Homo sapiens, UniProt P11309)", "T31 construct": "either as full-length or enzymatically active fragments; purchased ProQinase GmbH (Reaction Biology)", "T31 sequence (P11309 whole entry, the tested form may be a part)": "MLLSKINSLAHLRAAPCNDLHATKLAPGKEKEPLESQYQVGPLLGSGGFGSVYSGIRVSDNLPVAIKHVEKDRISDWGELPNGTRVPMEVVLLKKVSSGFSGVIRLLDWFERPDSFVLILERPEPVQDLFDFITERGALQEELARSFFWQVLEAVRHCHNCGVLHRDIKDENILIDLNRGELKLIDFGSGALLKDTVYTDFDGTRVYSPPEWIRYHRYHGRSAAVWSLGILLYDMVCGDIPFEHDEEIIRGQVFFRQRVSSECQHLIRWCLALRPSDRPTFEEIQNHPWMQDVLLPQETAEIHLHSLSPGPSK", "outline": "as §1"}}, "data": [{"smiles": "C=CC(=O)Nc1ccc(C(=O)N2CC[C@@H](Nc3ncc(C#N)cn3)C2)cc1", "note": "[Compound 4, (R)-N-(4-(3-((5-cyanopyrimidin-2-yl)amino)pyrrolidine-1-carbonyl)phenyl)acrylamide]", "values": [{"measurement": "inhibition at 1 µM", "setting": "TYK2", "value": 6, "unit": "%"}, {"measurement": "inhibition at 1 µM", "setting": "RPS6KA5", "value": 10, "unit": "%"}, {"measurement": "inhibition at 1 µM", "setting": "PDGFRbeta", "value": 6, "unit": "%"}, {"measurement": "inhibition at 1 µM", "setting": "MKK4", "value": 4, "unit": "%"}, {"measurement": "inhibition at 1 µM", "setting": "ACK1", "value": 6, "unit": "%"}, {"measurement": "inhibition at 1 µM", "setting": "PKCeta", "value": -14, "unit": "%"}, {"measurement": "inhibition at 1 µM", "setting": "TSSK1", "value": -10, "unit": "%"}, {"measurement": "inhibition at 1 µM", "setting": "MELK", "value": 1, "unit": "%"}, {"measurement": "inhibition at 1 µM", "setting": "TSK2", "value": -1, "unit": "%"}, {"measurement": "inhibition at 1 µM", "setting": "MUSK", "value": 7, "unit": "%"}, {"measurement": "inhibition at 1 µM", "setting": "WNK3", "value": -6, "unit": "%"}, {"measurement": "inhibition at 1 µM", "setting": "SIK2", "value": -4, "unit": "%"}, {"measurement": "inhibition at 1 µM", "setting": "GRK7", "value": -5, "unit": "%"}, {"measurement": "inhibition at 1 µM", "setting": "NEK1", "value": 0, "unit": "%"}, {"measurement": "inhibition at 1 µM", "setting": "PKCalpha", "value": -5, "unit": "%"}, {"measurement": "inhibition at 1 µM", "setting": "ABL2", "value": -1, "unit": "%"}, {"measurement": "inhibition at 1 µM", "setting": "SRPK1", "value": -8, "unit": "%"}, {"measurement": "inhibition at 1 µM", "setting": "PDK1", "value": -7, "unit": "%"}, {"measurement": "inhibition at 1 µM", "setting": "PIM2", "value": 3, "unit": "%"}, {"measurement": "inhibition at 1 µM", "setting": "EPHA5", "value": -8, "unit": "%"}, {"measurement": "inhibition at 1 µM", "setting": "CAMKK2", "value": 9, "unit": "%"}, {"measurement": "inhibition at 1 µM", "setting": "p38alpha", "value": 3, "unit": "%"}, {"measurement": "inhibition at 1 µM", "setting": "CDK9/CycT1", "value": 27, "unit": "%"}, {"measurement": "inhibition at 1 µM", "setting": "SGK3", "value": 5, "unit": "%"}, {"measurement": "inhibition at 1 µM", "setting": "BRSK2", "value": -10, "unit": "%"}, {"measurement": "inhibition at 1 µM", "setting": "CDK20/CycT1", "value": 5, "unit": "%"}, {"measurement": "inhibition at 1 µM", "setting": "CDK3/CycE1", "value": 25, "unit": "%"}, {"measurement": "inhibition at 1 µM", "setting": "NEK3", "value": 6, "unit": "%"}, {"measurement": "inhibition at 1 µM", "setting": "CDK6/CycD1", "value": 1, "unit": "%"}, {"measurement": "inhibition at 1 µM", "setting": "BRSK1", "value": -4, "unit": "%"}, {"measurement": "inhibition at 1 µM", "setting": "PIM1", "value": 3, "unit": "%"}]}]}
